Assay results: patent US20240287093A1, “HIGH ACTIVITY STING PROTEIN AGONIST” (ADLAI NORTYE BIOPHARMA CO., LTD., priority 2018, published 2024)

Tests used:
Type in all cases: cell-based
STING = molecular target: T1, STING (Homo sapiens, UniProt Q86WV6, G230A/H232R/R293Q/R71H); assay: IFNβ release from THP1 by STING activation (hIFNβ ELISA); details: THP1 cells, 24 h, IFN-β in supernatant; inactive = IFNβ not detected at the maximum concentration of compounds
T1 construct: THP1 was purchased from National Collection of Authenticated Cell Cultures (Cat #TCHu 57); host or cells: THP1
How it was run: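 THP1 cells from log-phase culture, suspended at 2×10^6 cells/ml, were treated with an 8-point, 3-fold compound series (0.2% DMSO final) for 24 h at 37°C, 5% CO2. Secreted IFN-β in supernatant was quantified by human IFNβ ELISA, and EC50 was obtained by curve fitting.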

STING variants (WT) = molecular target: T2, STING variants (WT) (Homo sapiens, UniProt Q86WV6); assay: SEAP reporter assay in HEK-Blue ISG KO-STING cells transfected with STING WT variant (Method 2, 1 ng vector); details: compound concentration 2.5 (mM as printed); 24 h; SEAP signal ratio to 0.5% DMSO
T2 construct: host or cells: HEK-Blue ISG KO-STING cells (Invivogen, hkb-kostg)
From the text: (§1) Example II: STING Variants (WT & HAQ) Activation by Compounds in HEK-Blue™ ISG KO-STING Cells (Method 2)
(§2) Activation of STING can be determined using a SEAP reporter assay in HEK-Blue™ ISG KO-STING cells (Invivogen, cat #hkb-kostg) transfected with plasmids expressing STING variants (WT & HAQ) (referred to WO2017/175147A1). STING variants (WT & HAQ) vector were constructed based on STING-232H vector (Origene, RC208418). GFP vector (VT2069) was bought from Youbio. The detailed protocol as follows: HEK-Blue™ ISG KO-STING cells were harvest and seeding into 96 well plate and the final cell number was 0.8×10^5 cells/well. Transfections were prepared using Lipofectamine 2000 (Invitrogen, Cat #11668-027) following the manufacturer's instructions (Lipo2000:DNA=1:10), 20 ul of transfection suspension containing 1 ng (WT variant) or 0.0625 ng (HAQ variant) STING vector was added to cell culture plate and incubated at 37° C., 5% CO2 for 24 h. After 24 hours incubation, compounds were added at proper concentration, the final DMSO concentration was 0.5%. After 24h incubation, the supernatant was collected to detect SEAP signal using Great EscAPe SEAP chemiluminescence KIT (Clontech, cat #631738) and cells were collected to detect cell viability using CellTiter-Glo Luminescent Cell Viability Assay(Promega, cat #G7573) following the manufacturer's instructions. The data were described by the ratio of the stimulating signal of compounds to 0.5% DMSO.

STING variants (HAQ) = molecular target: T3, STING variants (HAQ) (Homo sapiens, UniProt Q86WV6, G230A/R293Q/R71H); assay: SEAP reporter assay in HEK-Blue ISG KO-STING cells transfected with STING HAQ variant (Method 2, 0.0625 ng vector); details: compound concentration 5 (mM as printed); 24 h; SEAP signal ratio to 0.5% DMSO
T3 construct: host or cells: HEK-Blue ISG KO-STING cells (Invivogen, hkb-kostg)
From the text: as §1, §2

T1 sequence (Q86WV6 whole entry R71H/G230A/H232R/R293Q): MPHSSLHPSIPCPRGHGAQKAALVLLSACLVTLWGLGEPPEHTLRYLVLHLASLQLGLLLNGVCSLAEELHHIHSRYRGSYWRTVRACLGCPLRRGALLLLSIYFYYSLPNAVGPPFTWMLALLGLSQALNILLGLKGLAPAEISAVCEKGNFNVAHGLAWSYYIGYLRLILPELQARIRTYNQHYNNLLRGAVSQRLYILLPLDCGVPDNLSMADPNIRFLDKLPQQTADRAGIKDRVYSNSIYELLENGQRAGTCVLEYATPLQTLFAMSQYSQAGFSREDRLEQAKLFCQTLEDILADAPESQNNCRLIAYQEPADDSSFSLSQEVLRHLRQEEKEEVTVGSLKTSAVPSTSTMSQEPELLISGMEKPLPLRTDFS
T3 sequence (Q86WV6 whole entry R71H/G230A/R293Q): as the sequence (Q86WV6 whole entry R71H/G230A/H232R/R293Q) above, with R232H counted along it

| SMILES | EC50 (STING) [µM] | Fold change related to DMSO control, WT (STING variants (WT)) [fold] | Fold change related to DMSO control, HAQ (STING variants (HAQ)) [fold] | hIFNβ ELISA (EC50, μM) (STING) |
| --- | --- | --- | --- | --- |
| CCn1nc(C)c(F)c1C(=O)Nc1nc2cc(C(N)=O)cc3c2n1[C@@H](C)CCO3 [Example 63, (S)-1-(1-ethyl-4-fluoro-3-methyl-1H-pyrazole-5-carboxamido)-9-methyl-8,9-dihydro-7H-6-oxa-2,9a-diazabenzo[cd]azulene-4-carboxamide] | > 16.7 | 2.10 | 15.19 |  |
| C=CCCCn1nc(C)cc1C(=O)Nc1nc2cc(C(N)=O)cc3c2n1[C@@H](CCCN)CO3 [Example 50, (S)-3-(3-Aminopropyl)-2-(3-methyl-1-(pent-4-en-1-yl)-1H-pyrazole-5-carboxamido)-3,4-dihydro-5-oxa-1,2a-diazaacenaphthylene-7-carboxamide] |  | 0.83 | 1.27 | inactive |
| CCn1nc(C)c(Br)c1C(=O)Nc1nc2cc(C(N)=O)cc3c2n1[C@@H](C(C)C)CO3 [Example 56, (S)-2-(4-Bromo-1-ethyl-3-methyl-1H-pyrazole-5-carboxamido)-3-isopropyl-3,4-dihydro-5-oxa-1,2a-diazaacenaphthylene-7-carboxamide] |  | 1.16 | 1.17 | inactive |
| CCn1nc(C)cc1C(=O)Nc1nc2cc(C(N)=O)cc3c2n1C[C@@H](C)CO3 [Example 70, (R)-1-(1-Ethyl-3-methyl-1H-pyrazole-5-carboxamido)-8-methyl-8,9-dihydro-7H-6-oxa-2,9a-diazabenzo[cd]azulene-4-carboxamide] | > 50 | 2.37 | 10.57 |  |
| C=Cc1c(C)nn(CC)c1C(=O)Nc1nc2cc(C(N)=O)cc3c2n1[C@@H](CCCN)CO3 [Example 51, (S)-3-(3-Aminopropyl)-2-(1-ethyl-3-methyl-4-vinyl-1H-pyrazole-5-carboxamido)-3,4-dihydro-5-oxa-1,2a-diazaacenaphthylene-7-carboxamide] |  | 0.79 | 0.63 | inactive |
| CCn1nc(C)cc1C(=O)Nc1nc2cc(C(N)=O)cc3c2n1CC1(COC1)CO3 [Example 59, 1-(1-Ethyl-3-methyl-1H-pyrazole-5-carboxamido)-7H,9H-6-oxa-2,9a-diazaspiro[benzo[cd]azulene-8,3′-oxetan]-1,2a,2a^1(5a),4-tetraene-4-carboxamide] | > 21.6 | 1.22 | 1.13 |  |
| CCn1nc(C)cc1C(=O)Nc1nc2cc(C(N)=O)cc3c2n1CCCO3 [Example 57, 1-(1-Ethyl-3-methyl-1H-pyrazole-5-carboxamido)-8,9-dihydro-7H-6-oxa-2,9a-diazabenzo[cd]azulene-4-carboxamide] |  | 1.34 | 3.59 | inactive |
| CCn1nc(C)cc1C(=O)Nc1nc2cc(C(N)=O)cc3c2n1C[C@H](C)CO3 [Example 71, (S)-1-(1-Ethyl-3-methyl-1H-pyrazole-5-carboxamido)-8-methyl-8,9-dihydro-7H-6-oxa-2,9a-diazabenzo[cd]azulene-4-carboxamide] | > 17.6 | 2.97 | 18.10 |  |
| CC[C@H]1COc2cc(C(N)=O)cc3nc(NC(=O)c4c(Cl)c(C)nn4CC)n1c23 [Example 48, (S)-2-(4-Chloro-1-ethyl-3-methyl-1H-pyrazole-5-carboxamido)-3-ethyl-3,4-dihydro-5-oxa-1,2a-diazaacenaphthylene-7-carboxamide] |  | 1.85 | 3.46 | inactive |
| CCn1nc(C)c(Br)c1C(=O)Nc1nc2cc(C(N)=O)cc3c2n1CC(C)(C)CO3 [Example 46, 1-(4-Bromo-1-ethyl-3-methyl-1H-pyrazole-5-carboxamido)-8,8-dimethyl-8,9-dihydro-7H-6-oxa-2,9a-diazabenzo[cd]azulene-4-carboxamide] | > 5.6 | 1.41 | 2.12 |  |
| CC[C@H]1COc2cc(C(N)=O)cc3nc(NC(=O)c4c(Br)c(C)nn4CC)n1c23 [Example 49, (S)-2-(4-Bromo-1-ethyl-3-methyl-1H-pyrazole-5-carboxamido)-3-ethyl-3,4-dihydro-5-oxa-1,2a-diazaacenaphthylene-7-carboxamide] | > 2.5 | 1.49 | 1.94 |  |

Further lines, results first:

| EC50 (STING) [µM] | Fold change related to DMSO control, WT (STING variants (WT)) [fold] | Fold change related to DMSO control, HAQ (STING variants (HAQ)) [fold] | hIFNβ ELISA (EC50, μM) (STING) | SMILES |
| --- | --- | --- | --- | --- |
| > 11.6 | 1.63 | 8.89 |  | CCn1nc(C)c(F)c1C(=O)Nc1nc2cc(C(N)=O)cc3c2n1CCCO3 [Example 65, 1-(1-ethyl-4-fluoro-3-methyl-1H-pyrazole-5-carboxamido)-8,9-dihydro-7H-6-oxa-2,9a-diazabenzo[cd]azulene-4-carboxamide] |
| > 27.2 | 1.84 | 13.40 |  | CCn1nc(C)cc1C(=O)Nc1nc2cc(C(N)=O)cc3c2n1[C@@H](C)CCO3 [Example 62, (S)-1-(1-ethyl-3-methyl-1H-pyrazole-5-carboxamido)-9-methyl-8,9-dihydro-7H-6-oxa-2,9a-diazabenzo[cd]azulene-4-carboxamide] |
| > 38.5 | 1.24 | 3.27 |  | CCn1nc(C)c(F)c1C(=O)Nc1nc2cc(C(N)=O)cc3c2n1CC1(COC1)CO3 [Example 72, 1-(1-Ethyl-4-fluoro-3-methyl-1H-pyrazole-5-carboxamido)-7H,9H-6-oxa-2,9a-diazaspiro[benzo[cd]azulene-8,3′-oxetan]-1,2a,2a^1(5a),4-tetraene-4-carboxamide] |
| 2.8 | 7.15 | 71.56 |  | CCn1nc(C)c(F)c1C(=O)Nc1nc2cc(C(N)=O)cc3c2n1CCCN3C [Example 66, 1-(1-Ethyl-4-fluoro-3-methyl-1H-pyrazole-5-carboxamido)-6-methyl-6,7,8,9-tetrahydro-2,6,9a-triazabenzo[cd]azulene-4-carboxamide] |
|  | 1.38 | 2.96 | inactive | CCn1nc(C)c(Cl)c1C(=O)Nc1nc2cc(C(N)=O)cc3c2n1[C@@H](C(C)C)CO3 [Example 55, (S)-2-(4-chloro-1-ethyl-3-methyl-1H-pyrazole-5-carboxamido)-3-isopropyl-3,4-dihydro-5-oxa-1,2a-diazaacenaphthylene-7-carboxamide] |
| > 50 | 1.06 | 0.95 |  | CCn1nc(C)cc1C(=O)Nc1nc2cc(C(N)=O)cc3c2n1[C@@H](CO)CO3 [Example 58, (S)-2-(1-ethyl-3-methyl-1H-pyrazole-5-carboxamido)-3-(hydroxymethyl)-3,4-dihydro-5-oxa-1,2a-diazaacenaphthylene-7-carboxamide] |
| 15.8 | 6.55 | 73.46 |  | CCn1nc(C)cc1C(=O)Nc1nc2cc(C(N)=O)cc3c2n1CCCN3C [Example 60, 1-(1-ethyl-3-methyl-1H-pyrazole-5-carboxamido)-6-methyl-6,7,8,9-tetrahydro-2,6,9a-triaza benzo[cd]azulene-4-carboxamide] |
